Data: PMC12511262 (European Journal of Clinical Pharmacology, 2025)
Where two headings read alike, the source gives them in different places.

How the values were obtained:
[1] = Population pharmacokinetic model of quizartinib (NONMEM v7.5) applied to the external evaluation dataset; format: in vivo, human; conditions: popPK estimates
From the text: Parameter values and covariate relationships were fixed according to those reported in the original publication, without any re-estimation or modification. Key model parameters were described at Table 2: Predictions were generated using recorded doses, sampling times, and covariate values from the evaluation dataset.

[2] = single oral dose of 60 mg [14C]-quizartinib, six healthy men; cited from earlier work
[3] = FLT3-ITD negative AML patients, steady state

With `CC(C)(C)c1cc(NC(=O)Nc2ccc(-c3cn4c(n3)sc3cc(OCCN5CCOCC5)ccc34)cc2)no1` [quizartinib] the bioavailability ([1]; human, plasma, oral, FLT3-ITD negative AML patients, steady state, read-out: F1 Bioavailability, Mean) was 77%, the bioavailability ([1]; human, plasma, oral, FLT3-ITD negative AML patients, steady state, read-out: F1 Bioavailability, Median) was 75% and the Vd ([1]; human, plasma, oral, FLT3-ITD negative AML patients, steady state, read-out: V2 Volume of distribution (central compartment), Mean) was 219 L. The Vd ([1]; human, plasma, oral, FLT3-ITD negative AML patients, steady state, read-out: V2 Volume of distribution (central compartment), Median) was 227 L, the half-life ([1]; human, plasma, oral, FLT3-ITD negative AML patients, steady state, read-out: t1/2 Half-life, Mean (converted)) was 82.4 h and the half-life ([1]; human, plasma, oral, FLT3-ITD negative AML patients, steady state, read-out: t1/2 Half-life, Median (converted)) was 82.5 h. For the same compound, the bioavailability ([1]; human, plasma, oral, median, read-out: bioavailability factor (F1), median) was 75%, the clearance ([1]; human, plasma, oral, median, read-out: median clearance (CL) (converted)) was 29.3 mL/min and the “CL Clearance, Median” value [1, 3] was 1.76. The “KA Absorption rate constant, Mean” value [1, 3] was 1.68, the “KA Absorption rate constant, Median” value [1, 3] was 1.68 and the “KE Elimination rate constant, Mean” value [1, 3] was 0.01. For the same compound, the “KE Elimination rate constant, Median” value [1, 3] was 0.01, the “CL Clearance, Mean” value ([1]; FLT3-ITD negative AML patients, steady state, oral quizartinib 30 mg daily with food (one patient 60 mg)) was 1.97 and the “V3 (peripheral compartment), median” value ([1]; median) was 176.03 L. The “V4, median” value ([1]; median) was 39.30 L and the “time of maximum blood concentration post-dosing” value [2] was “four”.
